Values quoted from earlier work, collected in patent publication US20090011014A1, “Tablet Formulation for Sustained Drug-Release” (UNIVERSITE DE MONTREAL, priority 2004, published 2009).
Structures can show the parent of a compound that is named as a salt. Where two headings read alike, the source gives them in different places.

Legend:
[1] = 400-mg substituted amylose tablet containing 10% of drug; example 5 and FIG. 16 of U.S. Pat. No. 5,879,707

CC(=O)Nc1ccc(O)cc1 [Acetaminophen]
Influence of pH on solubility (physiological conditions): not influenced by pH

O=C([O-])c1ccccc1O.[Na+] [Sodium salicylate]
Solubility, U.S.P. XXIII descriptive term: freely soluble
Time for release of 95% of the drug [1]: 6.5 h

CC(NC(C)(C)C)C(=O)c1cccc(Cl)c1 (stereo not shown) [bupropion hydrochloride]
Solubility, U.S.P. XXIII descriptive term (hydrochloride): freely soluble
